Assay results taken from patent publication US20250230138A1, “COMPOUNDS HAVING A T-STRUCTURE FORMED BY AT LEAST FOUR CYCLES FOR USE IN THE TREATMENT OF CANCER AND OTHER INDICATIONS” (TheRas, Inc., priority 2022, published 2025).
Read-outs that look alike come from different tables or passages of the source.

Experiments:
[1] = biological target: Cys242 in human PIK3CA (157-299) (Homo sapiens (Human), UniProt P42336); experiment: Covalent modification assay using MALDI-TOF MS; assay type: biochemical; settings: 4 h reaction time point; 3.33 μM protein target, 1:7.5 protein to compound ratio (compounds 1-852)
Procedure, shortened: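 Covalent adduct formation was read by linear-mode MALDI-TOF with sinapinic acid matrix, reported as modified-protein peak height divided by total protein peak heights. Reactions held PIK3CA (157-299) at 1 or 3.33 μM in HEPES/NaCl/MgCl2 buffer, pH 7.3, sampled after 15 min to 4 h at room temperature.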

pAKT in BT474 cells = experiment: Cell-based pAKT HTRF assay in BT474 cells; settings: BT474 cells, 4 hr incubation, Compounds 10-999, read-out: pAKT inhibition IC50 in BT474 cells
Procedure, shortened: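 Treatment lasts 4 hr in DMEM/10% FBS at 0.25% DMSO over nine 3-fold dilutions from 3 μM. The lysate is then probed by HTRF.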

Chain of Cys242 in human PIK3CA (157-299) (P42336 157-299): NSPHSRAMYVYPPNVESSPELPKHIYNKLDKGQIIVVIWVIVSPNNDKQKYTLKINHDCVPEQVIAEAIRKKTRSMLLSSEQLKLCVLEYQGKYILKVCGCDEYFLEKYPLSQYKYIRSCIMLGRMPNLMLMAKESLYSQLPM

Row | IC50 (pAKT in BT474 cells) [nM] | IC50 (pAKT in BT474 cells; Homo sapiens, BT-474) [nM] | SMILES | % of modification [1]
1 | < 100 | – | C=CC(=O)N1CCc2nc(-c3nc(-c4ccc5c(c4)CNCCC5)c4ccsc4c3-c3ccc(F)cc3OCCOC)sc2C1 [Compound 168] | A (percent of modification of PIK3CA protein ≥75%)
2 | – | 100 to 1000 | C=CC(=O)N1CC(n2cc(-c3nc(-c4ccc5c(c4)CCNC5)c4ccnn4c3-c3ccc(F)cc3OC)cn2)C1 [Compound 169, 1-[3-[4-[7-(4-fluoro-2-methoxy-phenyl)-4-(1,2,3,4-tetrahydroisoquinolin-6-yl)pyrazolo[1,5-a]pyrazin-6-yl]pyrazol-1-yl]azetidin-1-yl]prop-2-en-1-one] | B (50%<percent of modification <75%)
3 | 1000 to 3000 | – | C=CC(=O)N1CC(n2cc(-c3nc(-c4ccc5c(c4)CCNC5)c4ccsc4c3-c3cccc(=O)n3CCOC)cn2)C1 [Compound 170] | D (percent of modification <25%)
4 | > 3000 | – | COc1cc(F)ccc1-c1c(-c2cnn(C3CN(C(=O)C(F)Cl)C3)c2)nc(-c2ccc3c(c2)CCNC3)c2ccsc12 (centres unmarked) [Compound 171] | D (percent of modification <25%)
5 | < 100 | – | C=CC(=O)N1CC(n2cc(-c3nc(-c4ccc(C(N)=O)cc4)c4ccsc4c3-c3ccc(F)cc3OC)cn2)C1 [Compound 172] | A (percent of modification of PIK3CA protein ≥75%)
6 | 100 to 1000 | – | C=CC(=O)N1CC[C@H](n2cc(-c3nc(-c4ccc5c(c4)CCNC5)c4ccsc4c3-c3ccc(F)cc3OCCOC)ccc2=O)C1 [Compound 173] | A (percent of modification of PIK3CA protein ≥75%)
7 | < 100 | – | C=CC(=O)N1CCc2nc(-c3nc(-c4ccc(N5CCNCC5)nc4)c4ccsc4c3-c3ccc(F)cc3OCCOC)sc2C1 [Compound 174] | A (percent of modification of PIK3CA protein ≥75%)
8 | 100 to 1000 | – | C=CC(=O)N1CCc2nc(-c3nc(N4CCC(N(C)C)CC4)c4ccsc4c3-c3ccc(F)cc3OCCOC)sc2C1 [Compound 175] | A (percent of modification of PIK3CA protein ≥75%)
9 | 100 to 1000 | – | C=CC(=O)N1CCc2nc(-c3nc(N4CCN(C(C)C)C(=O)C4)c4ccsc4c3-c3ccc(F)cc3OCCOC)sc2C1 [Compound 176] | A (percent of modification of PIK3CA protein ≥75%)
10 | 100 to 1000 | – | C=CC(=O)N1CC(n2cc(-c3nc(-c4ccnc(N)c4)c4ccsc4c3-c3ccc(F)cc3OCCOC)ccc2=O)C1 [Compound 177] | B (50%<percent of modification <75%)
11 | < 100 | – | C=CC(=O)N1CC(n2cc(-c3nc(-c4ccc5c(c4)CCNC5)c4ccsc4c3-c3ccc(F)cc3OCCOC)cc(C)c2=O)C1 [Compound 178] | A (percent of modification of PIK3CA protein ≥75%)
12 | < 100 | – | C=CC(=O)N1CC(n2cc(-c3nc(-c4ccn(C)c(=O)c4)c4ccsc4c3-c3ccc(F)cc3OC)cn2)C1 [Compound 179] | A (percent of modification of PIK3CA protein ≥75%)
13 | – | 100 to 1000 | C=CC(=O)N1CCC(CO)(n2cc(-c3nc(-c4ccc5c(c4)CCNC5)c4ccsc4c3-c3ccc(F)cc3OC)cn2)CC1 [Compound 180, 1-[4-[4-[7-(4-fluoro-2-methoxy-phenyl)-4-(1,2,3,4-tetrahydroisoquinolin-6-yl)thieno[3,2-c]pyridin-6-yl]pyrazol-1-yl]-4-(hydroxymethyl)-1-piperidyl]prop-2-en-1-one] | A (percent of modification of PIK3CA protein ≥75%)
14 | 100 to 1000 | – | C=CC(=O)N1CCC(n2cc(-c3nc(-c4ccc5c(c4)CCNC5)c4ccsc4c3-c3ccc(F)cc3OCCOC)ccc2=O)CC1 [Compound 181] | A (percent of modification of PIK3CA protein ≥75%)
15 | < 100 | – | C=CC(=O)N1CCc2nc(-c3nc(-c4ccc5c(c4)CCNC5)c4ccsc4c3-c3ccc(F)cc3OCC3CCNC(=O)C3)sc2C1 (centres unmarked) [Compound 182] | A (percent of modification of PIK3CA protein ≥75%)
16 | 100 to 1000 | – | C=CC(=O)N1CC(n2cc(-c3nc(-c4cnn(C)c(=O)c4)c4ccsc4c3-c3ccc(F)cc3OC)cn2)C1 [Compound 183] | A (percent of modification of PIK3CA protein ≥75%)

Row | IC50 (pAKT in BT474 cells) [nM] | IC50 (pAKT in BT474 cells; Homo sapiens, BT-474) [nM] | SMILES | % of modification [1]
17 | < 100 | – | C=CC(=O)N1CCn2nc(-c3nc(-c4ccc5c(c4)CCNC5=O)c4ccsc4c3-c3ccc(F)cc3OCCOC)nc2C1 [Compound 184] | A (percent of modification of PIK3CA protein ≥75%)
18 | – | < 100 | C=CC(=O)N1CCn2nc(-c3nc(-c4ccc5c(c4)CCN(C(C)C)C5)c4ccsc4c3-c3ccc(F)cc3OCCOC)nc2C1 [Compound 185, 1-[2-[7-[4-fluoro-2-(2-methoxyethoxy)phenyl]-4-(2-isopropyl-3,4-dihydro-1H-isoquinolin-6-yl)thieno[3,2-c]pyridin-6-yl]-6,8-dihydro-5H-[1,2,4]triazolo[1,5-a]pyrazin-7-yl]prop-2-en-1-one] | A (percent of modification of PIK3CA protein ≥75%)
19 | < 100 | – | C=CC(=O)N1CCn2nc(-c3nc(-c4ccnc(N)c4)c4ccsc4c3-c3ccc(F)cc3OCCOC)nc2C1 [Compound 186] | A (percent of modification of PIK3CA protein ≥75%)
20 | < 100 | – | C=CC(=O)N1CCc2nc(-c3nc(-c4cnn(C)c4)c4ccsc4c3-c3ccc(F)cc3OCC3CNC(=O)C3)sc2C1 (centres unmarked) [Compound 187] | A (percent of modification of PIK3CA protein ≥75%)
21 | 100 to 1000 | – | C=CC(=O)N1CC[C@H](n2cc(-c3nc(-c4ccc5c(c4)CCNC5)c4ccsc4c3-c3ccc(F)cc3OCCOC)ccc2=O)[C@H]1C [Compound 188] | A (percent of modification of PIK3CA protein ≥75%)
22 | – | < 100 | C=CC(=O)N1CCn2nc(-c3nc(-c4ccc5c(c4)CCNC5=O)c4ccsc4c3-c3ccc(F)cc3OCCOC)cc2C1 [Compound 189, 6-[7-[4-fluoro-2-(2-methoxyethoxy)phenyl]-6-(5-prop-2-enoyl-6,7-dihydro-4H-pyrazolo[1,5-a]pyrazin-2-yl)thieno[3,2-c]pyridin-4-yl]-3,4-dihydro-2H-isoquinolin-1-one] | A (percent of modification of PIK3CA protein ≥75%)
23 | – | < 100 | C=CC(=O)N1CCn2nc(-c3nc(-c4ccc5c(c4)CCN(C(C)C)C5)c4ccsc4c3-c3ccc(F)cc3OCCOC)cc2C1 [Compound 190, 1-[2-[7-[4-fluoro-2-(2-methoxyethoxy)phenyl]-4-(2-isopropyl-3,4-dihydro-1H-isoquinolin-6-yl)thieno[3,2-c]pyridin-6-yl]-6,7-dihydro-4H-pyrazolo[1,5-a]pyrazin-5-yl]prop-2-en-1-one] | A (percent of modification of PIK3CA protein ≥75%)
24 | < 100 | – | C=CC(=O)N1CCn2nc(-c3nc(-c4cnn(C)c4)c4ccsc4c3-c3ccc(F)cc3OCCOC)nc2C1 [Compound 191] | A (percent of modification of PIK3CA protein ≥75%)
25 | < 100 | – | C=CC(=O)N1CCn2nc(-c3nc(-c4ccc5c(c4)C(O)CC5)c4ccsc4c3-c3ccc(F)cc3OCCOC)nc2C1 (centres unmarked) [Compound 192] | A (percent of modification of PIK3CA protein ≥75%)
26 | < 100 | – | C=CC(=O)N1CCn2nc(-c3nc(-c4ccnc(N)c4)c4ccsc4c3-c3ccc(F)cc3OCCOC)nc2C1 [Compound 193] | A (percent of modification of PIK3CA protein ≥75%)
27 | – | < 100 | C=CC(=O)N1CCn2nc(-c3nc(-c4cnn(C)c4)c4ccsc4c3-c3ccc(F)cc3OCCOC)cc2C1 [Compound 194, 1-[2-[7-[4-fluoro-2-(2-methoxyethoxy)phenyl]-4-(1-methylpyrazol-4-yl)thieno[3,2-c]pyridin-6-yl]-6,7-dihydro-4H-pyrazolo[1,5-a]pyrazin-5-yl]prop-2-en-1-one] | A (percent of modification of PIK3CA protein ≥75%)
28 | – | < 100 | C=CC(=O)N1CCn2nc(-c3nc(-c4ccc(=O)n(C)c4)c4ccsc4c3-c3ccc(F)cc3OCCOC)cc2C1 [Compound 195, 5-[7-[4-fluoro-2-(2-methoxyethoxy)phenyl]-6-(5-prop-2-enoyl-6,7-dihydro-4H-pyrazolo[1,5-a]pyrazin-2-yl)thieno[3,2-c]pyridin-4-yl]-1-methyl-pyridin-2-one] | A (percent of modification of PIK3CA protein ≥75%)
29 | 100 to 1000 | – | C=CC(=O)N1CC(n2cc(-c3nc(-c4ccc(S(=O)(=O)NC)cc4)c4ccsc4c3-c3ccc(F)cc3OC)cn2)C1 [Compound 196] | A (percent of modification of PIK3CA protein ≥75%)
30 | < 100 | – | C=CC(=O)N1CCn2nc(-c3nc(-c4ccnc(N)c4)c4ccsc4c3-c3ccc(F)cc3OCCO)nc2C1 [Compound 197] | A (percent of modification of PIK3CA protein ≥75%)
31 | – | < 100 | C=CC(=O)N1CCn2nc(-c3nc(N4CCC5(CC4)COC5)c4ccsc4c3-c3ccc(F)cc3OCCOC)cc2C1 [Compound 198, 1-[2-[7-[4-fluoro-2-(2-methoxyethoxy)phenyl]-4-(2-oxa-7-azaspiro[3.5]nonan-7-yl)thieno[3,2-c]pyridin-6-yl]-6,7-dihydro-4H-pyrazolo[1,5-a]pyrazin-5-yl]prop-2-en-1-one] | A (percent of modification of PIK3CA protein ≥75%)
